From patent US20160083400A1, “TRICYCLIC GUANIDINE DERIVATIVE” (Sunovion Pharmaceuticals Inc., priority 2014, published 2016)

Molecular target: PDE1B (Homo sapiens, UniProt Q01064)
Assay: In vitro HTRF PDE1 inhibition assay (PDE1B)
Format: biochemical
Conditions: 100 nM cyclic GMP, calmodulin, 45 minutes at 37° C.

Chain of PDE1B (Q01064 whole entry): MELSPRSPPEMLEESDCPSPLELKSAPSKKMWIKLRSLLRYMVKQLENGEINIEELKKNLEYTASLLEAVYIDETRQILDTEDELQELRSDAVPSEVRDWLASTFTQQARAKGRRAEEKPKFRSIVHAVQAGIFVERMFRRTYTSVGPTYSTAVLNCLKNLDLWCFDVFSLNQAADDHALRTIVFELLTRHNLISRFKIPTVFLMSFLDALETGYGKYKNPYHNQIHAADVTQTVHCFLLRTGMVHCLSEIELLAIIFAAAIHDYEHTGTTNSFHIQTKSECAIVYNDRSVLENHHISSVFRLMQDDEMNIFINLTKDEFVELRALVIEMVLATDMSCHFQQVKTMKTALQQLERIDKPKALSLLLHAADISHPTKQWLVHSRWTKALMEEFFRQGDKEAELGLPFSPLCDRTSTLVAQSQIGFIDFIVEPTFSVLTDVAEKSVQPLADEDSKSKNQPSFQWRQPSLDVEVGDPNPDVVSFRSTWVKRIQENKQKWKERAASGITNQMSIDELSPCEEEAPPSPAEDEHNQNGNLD

| Compound | IC50 |
| --- | --- |
| Cc1ncc(C2CCn3c(nc4c(cnn4C(C)C)c3=O)N2)cn1 (centres unmarked) [Example 25] | 1 to 10 µM |
| CC(C)c1onc2c(=O)n3c(nc12)N[C@@H](c1ccc(Cl)cc1)CC3 [Example 152, (6R)-6-(4-Chlorophenyl)-3-isopropyl-4,6,7,8-tetrahydro-10H-[1,2]oxazolo[4,3-d]pyrimido[1,2-a]pyrimidin-10-one] | 1 to 10 µM |
| O=c1c2cnn(C3CCC(F)(F)CC3)c2nc2n1CCC(c1ccc(Cl)cc1)N2 (centres unmarked) [Example 39] | 1 to 10 µM |
| O=c1c2noc(C3CCOCC3)c2nc2n1CCC(c1cccc(Cl)c1)N2 (centres unmarked) [Example 159] | 10 to 100 µM |
| O=c1c2cnc(C(F)(F)F)n2nc2n1CC[C@H](c1ccc(Cl)cc1)N2 [Example 246] | 1 to 10 µM |
| CC(C)c1ncc2c(=O)n3c(nn12)N[C@H](c1ccc(Cl)cc1)CC3 [Example 49] | 1 to 10 µM |
| O=c1c2ccnc(C3CCOCC3)c2nc2n1CCC(c1ccc(Cl)cc1)N2 (centres unmarked) [Example 172] | 1 to 10 µM |
| N#Cc1ccc(C2CCn3c(nc4c(C5CCCC5)onc4c3=O)N2)cc1 (centres unmarked) [Example 154] | 1 to 10 µM |
| Cc1ccc(C2CCn3c(nc4c(cnn4C(C)C)c3=O)N2)cn1 (centres unmarked) [Example 12] | 1 to 10 µM |
| O=c1c2cnc(C3CCOCC3)n2nc2n1CC(c1ccc(F)nc1)N2 (centres unmarked) [Example 184] | 1 to 10 µM |
| O=c1c2cnc(C3CCOCC3)n2nc2n1CCC1(CCc3ccccc31)N2 (centres unmarked) [Example 177, 9-(Tetrahydro-2H-pyran-4-yl)-2′,3,3′,4-tetrahydro-1H,6H-spiro[imidazo[5,1-f]pyrimido[2,1-c][1,2,4]triazine-2,1′-inden]-6-one] | 1 to 10 µM |
| Cc1ccc(CC2CCn3c(nc4c(cnn4C4CCCC4)c3=O)N2)cn1 (centres unmarked) [Example 42] | 1 to 10 µM |
| Cc1ncc(CC2CCn3c(nc4c(cnn4C(C)C)c3=O)N2)cn1 (centres unmarked) [Example 72] | 1 to 10 µM |
| Cc1cc(C2CCn3c(nc4c(cnn4C(C)C)c3=O)N2)ccn1 (centres unmarked) [Example 26] | 1 to 10 µM |
| O=c1c2cnn(C3CCCC3)c2nc2n1CCC(c1ccncc1)N2 (centres unmarked) [Example 3] | 1 to 10 µM |
| O=c1c2cnn(C3CCCC3)c2nc2n1CC[C@@H](c1ccc(Cl)cc1)N2 [Example 41] | 1 to 10 µM |
| COc1ccc([C@H]2Cn3c(nc4c(cnn4C(C)C)c3=O)N2)cc1 [Example 146] | < 1 µM |
| O=c1c2cnn(C3CCOCC3)c2nc2n1CC(c1ccc(F)cc1)N2 (centres unmarked) [Example 76] | < 1 µM |
| CC(C)c1ncc2c(=O)n3c(nn12)NC(c1ccc(C#N)cc1)CC3 (centres unmarked) [Example 91] | < 1 µM |
| CC(C)(C)c1ncc2c(=O)n3c(nn12)NC(c1ccc(Cl)cc1)CC3 (centres unmarked) [Example 68] | < 1 µM |
| CC(C)(C)n1ncc2c(=O)n3c(nc21)NC(c1ccc(Cl)cc1)CC3 (centres unmarked) [Example 45] | 10 to 100 µM |
| COc1ccc(CC2CCn3c(nn4c(C5CCOCC5)ncc4c3=O)N2)cc1 (centres unmarked) [Example 58] | < 1 µM |
| CC(C)c1onc2c(=O)n3c(nc12)NC(c1cccc(Cl)c1)CC3 (centres unmarked) [Example 158] | 1 to 10 µM |
| COc1ccc([C@H]2CCn3c(nn4c(C(C)C)ncc4c3=O)N2)cc1 [Example 85] | < 1 µM |
| CC(C)n1ncc2c(=O)n3c(nc21)N[C@H](c1ccc(Cl)cc1)C3 [Example 143] | < 1 µM |

| Compound | IC50 |
| --- | --- |
| Cc1ccc(CC2CCn3c(nc4c(cnn4C(C)C)c3=O)N2)cn1 (centres unmarked) [Example 33] | 1 to 10 µM |
| O=c1c2cnc(C3CCCC3)n2nc2n1CC[C@H](c1cncc(Cl)c1)N2 [Example 135] | < 1 µM |
| COC(C)(C)c1ncc2c(=O)n3c(nn12)N[C@@H](c1ccc(Cl)cc1)CC3 [Example 240] | < 1 µM |
| C[C@@H](O)c1ncc2c(=O)n3c(nn12)N[C@@H](c1ccc(Cl)cc1)CC3 [Example 250] | < 1 µM |
| CC(C)c1ncc2n1NC1=N[C@H](c3ccc(Cl)cc3)CN1C2=O [Example 136, (2R)-2-(4-Chlorophenyl)-8-isopropyl-2,10-dihydro-3H,5H-diimidazo[2,1-c:5′,1′-f][1,2,4]triazin-5-one] | < 1 µM |
| CC(C)c1ncc2c(=O)n3c(nn12)NC(c1ccc(C#N)cn1)CC3 (centres unmarked) [Example 92] | < 1 µM |
| CC(C)n1ncc2c(=O)n3c(nc21)N[C@H](c1ccc(Cl)cc1)CC3 [Example 28] | 1 to 10 µM |
| O=c1c2cnc(C3CCC3)n2nc2n1CCC(c1ccc(Cl)cc1)N2 (centres unmarked) [Example 63] | < 1 µM |
| O=c1c2cnc(CO)n2nc2n1CC[C@H](c1ccc(Cl)cc1)N2 [Example 237] | 1 to 10 µM |
| Cc1ncc(CC2CCn3c(nc4c(cnn4C4CCCC4)c3=O)N2)cn1 (centres unmarked) [Example 71] | 1 to 10 µM |
| Cc1cnc(CC2CCn3c(nc4c(cnn4C(C)C)c3=O)N2)nc1 (centres unmarked) [Example 73] | 1 to 10 µM |
| Cc1cccc([C@@H]2CCn3c(nn4c(C5CCOCC5)ncc4c3=O)N2)c1 [Example 263, (2S)-2-(3-Methylphenyl)-9-(tetrahydro-2H-pyran-4-yl)-1,2,3,4-tetrahydro-6H-imidazo[5,1-f]pyrimido[2,1-c][1,2,4]triazin-6-one] | < 1 µM |
| O=c1c2cnc(C3CC=CCC3)n2nc2n1CC[C@H](c1ccc(Cl)cc1)N2 (some centres unmarked) [Example 243] | < 1 µM |
| C=C(C)c1ncc2c(=O)n3c(nn12)N[C@@H](c1ccc(Cl)cc1)CC3 [Example 241] | < 1 µM |
| O=c1c2cnc(C3CCOCC3)n2nc2n1CC[C@@H](c1ccc(Cl)cc1F)N2 [Example 124] | 1 to 10 µM |
| O=c1c2cnc(C3CCOCC3)n2nc2n1CC[C@H](c1ccc(Cl)cc1F)N2 [Example 125] | < 1 µM |
| O=c1c2cnc(C3CCC3)n2nc2n1CCC(c1ccc(C(F)(F)F)cc1)N2 (centres unmarked) [Example 64] | < 1 µM |
| O=c1c2cnc(C3CCNCC3)n2nc2n1CCC(c1ccc(Cl)cc1)N2 (centres unmarked) [Example 253, 2-(4-Chlorophenyl)-9-(4-piperidinyl)-1,2,3,4-tetrahydro-6H-imidazo[5,1-f]pyrimido[2,1-c][1,2,4]triazin-6-one] | 1 to 10 µM |
| COc1ccc([C@H]2CN3C(=O)c4cnc(C5(C(F)(F)F)CC5)n4NC3=N2)cc1 [Example 256, (2S)-2-(4-Methoxyphenyl)-8-[1-(trifluoromethyl)cyclopropyl]-2,10-dihydro-3H,5H-diimidazo[2,1-c:5′,1′-f][1,2,4]triazin-5-one] | < 1 µM |
| O=c1c2noc(C3CCCC3)c2nc2n1CC[C@H](c1ccc(Cl)cc1)N2 [Example 153] | 10 to 100 µM |
| CC(=O)c1ncc2c(=O)n3c(nn12)N[C@@H](c1ccc(Cl)cc1)CC3 [Example 252, (2R)-9-Acetyl-2-(4-chlorophenyl)-1,2,3,4-tetrahydro-6H-imidazo[5,1-f]pyrimido[2,1-c][1,2,4]triazin-6-one] | 1 to 10 µM |
| O=c1c2noc(C3CCOCC3)c2nc2n1CC[C@H](c1ccc(Cl)cc1)N2 [Example 155] | 1 to 10 µM |
| COc1cc(C2CCn3c(nn4c(C(C)C)ncc4c3=O)N2)ccc1F (centres unmarked) [Example 48] | < 1 µM |
| CCC(CC)n1ncc2c(=O)n3c(nc21)NC(c1ccc(Cl)cc1)CC3 (centres unmarked) [Example 36] | < 1 µM |
| COc1cccc([C@@H]2CCn3c(nn4c(C5CCOCC5)ncc4c3=O)N2)c1 [Example 129] | < 1 µM |

Now from value to compound:

| IC50 | Compound |
| --- | --- |
| < 1 µM | O=c1c2cnc(C3CCOCC3)n2nc2n1C[C@@H](c1ccc(Cl)cc1)N2 [Example 138] |
| < 1 µM | COc1ccc([C@@H]2Cn3c(nn4c(C5CCOCC5)ncc4c3=O)N2)cc1 [Example 140] |
| < 1 µM | O=c1c2cnn(C3CCOCC3)c2nc2n1CCC(c1ccc(Cl)cc1)N2 (centres unmarked) [Example 43] |
| < 1 µM | CC(C)n1ncc2c(=O)n3c(nc21)NC(c1ccc(C#N)cc1)CC3 (centres unmarked) [compound 88] |
| < 1 µM | COc1cccc([C@H]2CCn3c(nn4c(C5CCOCC5)ncc4c3=O)N2)c1 [Example 128] |
| < 1 µM | O=c1c2cnc(C3CCC3)n2nc2n1CCC(Cc1ccc(Cl)cc1)N2 (centres unmarked) [Example 66] |
| < 1 µM | CCn1ncc2c(=O)n3c(nc21)NC(c1ccc(Cl)cc1)CC3 (centres unmarked) [Example 34] |
| < 1 µM | CC(C)c1ncc2c(=O)n3c(nn12)NC(C1CCCCC1)CC3 (centres unmarked) [Example 53] |
| < 1 µM | O=c1c2cnn(C3CCCC3)c2nc2n1CC[C@H](c1ccc(Cl)cc1)N2 [Example 40] |
| < 1 µM | O=c1c2cnn(CC(F)(F)F)c2nc2n1CCC(c1ccc(Cl)cc1)N2 (centres unmarked) [Example 38] |
| < 1 µM | Cc1cccc([C@H]2CCn3c(nn4c(C5CCOCC5)ncc4c3=O)N2)c1 [Example 264, (2R)-2-(3-Methylphenyl)-9-(tetrahydro-2H-pyran-4-yl)-1,2,3,4-tetrahydro-6H-imidazo[5,1-f]pyrimido[2,1-c][1,2,4]triazin-6-one] |
| < 1 µM | COc1ccc(C2CCn3c(nn4c(C(C)C)ncc4c3=O)N2)cc1 (centres unmarked) [Example 54] |
| < 1 µM | N#Cc1ccc(C2CCn3c(nn4c(C5CCC5)ncc4c3=O)N2)cc1 (centres unmarked) [Example 95] |
| < 1 µM | O=c1c2cnc(C3CCOCC3)n2nc2n1CC[C@@H](c1cccc(Cl)c1)N2 [Example 126] |
| < 1 µM | Cc1cncc([C@H]2CCn3c(nn4c(C5CCCC5)ncc4c3=O)N2)c1 [Example 132] |
| < 1 µM | COc1cncc([C@H]2CCn3c(nn4c(C5CCCC5)ncc4c3=O)N2)c1 [Example 130] |
| < 1 µM | O=c1c2cnc(C3CCOCC3)n2nc2n1CC[C@H](c1ccc(Cl)cc1C(F)(F)F)N2 [Example 122] |
| < 1 µM | CC1(c2ncc3c(=O)n4c(nn23)N[C@@H](c2ccc(Cl)cc2)CC4)CCCC1 [Example 245] |
| < 1 µM | O=c1c2cnn(C3CCOCC3)c2nc2n1C[C@H](c1ccc(Cl)cc1)N2 [Example 148] |
| < 1 µM | O=c1c2cnc(C3CCOCC3)n2nc2n1CC[C@H](c1cccc(Cl)c1)N2 [Example 127] |
| < 1 µM | COc1cncc([C@@H]2CCn3c(nn4c(C5CCCC5)ncc4c3=O)N2)c1 [Example 131] |
| < 1 µM | O=c1c2cnc(C3CCCC3)n2nc2n1CCC(c1ccc(Cl)cc1)N2 (centres unmarked) [Example 60] |
| < 1 µM | O=c1c2cnc(C3CCOCC3)n2nc2n1CCC(c1cccc(Cl)c1)N2 (centres unmarked) [Example 56] |
| < 1 µM | O=C1c2cnc([C@@H]3CCOC3)n2NC2=N[C@@H](c3ccc(Cl)cc3)CN12 [Example 185, (2S)-2-(4-Chlorophenyl)-8-[(3S)-tetrahydro-3-furanyl]-2,10-dihydro-3H,5H-diimidazo[2,1-c:5′,1′-f][1,2,4]triazin-5-one] |
